Results on 26 compounds are retold here after PubChem BioAssay AID330 (DTP/NCI, 2004).

Values joined by “and” are separate entries in the source; they are usually repeats but may differ in a detail not shown here. Equal entries are not always repeated. Toxic doses and inconclusive results are not listed.

The assay deals with P388 leukemia ip, CD2F1 mice, survival T/C. In words: NCI In Vivo Anticancer Drug Screen. Data for tumor model P388 Leukemia (intraperitoneal) in CD2F1 (CDF1) mice. The note with it: endpoint: median survival time, higher = longer survival. The gist of the method: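 Mice carrying the transplanted tumor received test compound or vehicle. Survival was recorded in each group, and the value is the treated-group measurement divided by that of the vehicle-treated control group.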

[1] abbreviates: dose: 60.0 mg/kg/injection, schedule: Q01DX005 (ip), vehicle: Klucel (hydroxypropylcellulose) (HPC).
The mark [2] stands for this setting: dose: 120.0 mg/kg/injection, schedule: Q01DX005 (ip), vehicle: Klucel (hydroxypropylcellulose) (HPC).
Where [3] appears, read: dose: 240.0 mg/kg/injection, schedule: Q01DX005 (ip), vehicle: Klucel (hydroxypropylcellulose) (HPC).
[4] abbreviates: dose: 50.0 mg/kg/injection, schedule: Q01DX005 (ip), vehicle: saline with Tween-80.
Setting [5] is: dose: 100.0 mg/kg/injection, schedule: Q01DX005 (ip), vehicle: saline with Tween-80.
The mark [6] stands for this setting: dose: 200.0 mg/kg/injection, schedule: Q01DX005 (ip), vehicle: saline with Tween-80.
Setting [7] is: dose: 50.0 mg/kg/injection, schedule: Q01DX009 (ip), vehicle: saline with Tween-80.
The mark [8] stands for this setting: dose: 100.0 mg/kg/injection, schedule: Q01DX009 (ip), vehicle: saline with Tween-80.
Where [9] appears, read: dose: 200.0 mg/kg/injection, schedule: Q01DX009 (ip), vehicle: saline with Tween-80.
Where [10] appears, read: dose: 50.0 mg/kg/injection, schedule: Q01DX009 (ip), vehicle: saline.

In the case of `CC(=O)Cc1ncn(-c2cc(C)on2)n1`, the T/C is, setting by setting: under setting [1], 111 % of control; under setting [2], 113 % of control; under setting [3], 100 % of control.

With `N#Cc1ccc(OCCCCOc2ccc(C#N)cc2)cc1`, the T/C was 95 % of control (dose: 6.25 mg/kg/injection, schedule: Q01DX005 (ip), vehicle: saline with Tween-80); 97 % of control (dose: 12.5 mg/kg/injection, schedule: Q01DX005 (ip), vehicle: saline with Tween-80); 91 % of control (dose: 25.0 mg/kg/injection, schedule: Q01DX005 (ip), vehicle: saline with Tween-80).

`CCCCCCOC(CN(C)C)C(Cl)(Cl)Cl` (configuration not stated): the T/C is, setting by setting: (dose: 50.0 mg/kg/injection, schedule: Q01DX009 (ip), vehicle: suspension in saline) 97 % of control; (dose: 100.0 mg/kg/injection, schedule: Q01DX009 (ip), vehicle: suspension in saline) 96 % of control; (dose: 400.0 mg/kg/injection, schedule: Q01DX009 (ip), vehicle: suspension in saline) 124 % of control.

Consider `CCOC(=O)C1=Nc2cccc3c(O)ccc1c23`, for which the T/C is, setting by setting: under setting [4], 113 % of control; under setting [5], 109 % of control; under setting [6], 111 % of control.

With `NC(CNC(=O)CBr)C(=O)O` (configuration not stated), the T/C (dose: 6.25 mg/kg/injection, schedule: Q01DX005 (ip), vehicle: water) is 117 % of control and 118 % of control; the T/C (dose: 100.0 mg/kg/injection, schedule: Q01DX005 (ip), vehicle: water) is 152 % of control.

`COc1ccc(C(=O)c2ccc(OCCBr)cc2)c(O)c1`: the T/C under setting [4] was 92 % of control, the T/C under setting [5] is 88 % of control and the T/C under setting [6] was 88 % of control.

Consider `CC1C(=O)OC2C1CCC1(C)C=C(Cl)C(=O)C(C)(Cl)C21O` (configuration not stated), for which the T/C was 111 % of control (dose: 50.0 mg/kg/injection, schedule: Q04DX002 (ip), vehicle: saline with Tween-80); 107 % of control (dose: 100.0 mg/kg/injection, schedule: Q04DX002 (ip), vehicle: saline with Tween-80); 100 % of control (dose: 200.0 mg/kg/injection, schedule: Q04DX002 (ip), vehicle: saline with Tween-80).

For `CC(=O)OC1CSC(OC(C)=O)C(OC(C)=O)C1[N+](=O)[O-]` (configuration not stated), the T/C (dose: 100.0 mg/kg/injection, schedule: Q04DX002 (ip), vehicle: saline) is 99 % of control and the T/C (dose: 200.0 mg/kg/injection, schedule: Q04DX002 (ip), vehicle: saline) was 115 % of control.

Take `COc1ccc(C[n+]2ccc3c([N+](=O)[O-])cccc3c2)cc1`: the T/C is, setting by setting: (dose: 7.5 mg/kg/injection, schedule: Q01DX005 (ip), vehicle: saline + Tween-80 + alcohol) 111 % of control; (dose: 15.0 mg/kg/injection, schedule: Q01DX005 (ip), vehicle: saline + Tween-80 + alcohol) 116 % of control; (dose: 30.0 mg/kg/injection, schedule: Q01DX005 (ip), vehicle: saline + Tween-80 + alcohol) 116 % of control.

`CCCCCC(=O)C1C(c2ccc(C)cc2)CC(=O)C(CCCC)C1c1ccc(C)cc1` (configuration not stated): the T/C under setting [4] was 93 % of control, the T/C under setting [5] is 93 % of control and the T/C under setting [6] was 93 % of control.

`CC(C)C(NC(=O)OCC1c2ccccc2-c2ccccc21)C(=O)O` (configuration not stated): the T/C (dose: 50.0 mg/kg/injection, schedule: Q01DX005 (ip), vehicle: Klucel (hydroxypropylcellulose) (HPC)) was 104 % of control; the T/C (dose: 100.0 mg/kg/injection, schedule: Q01DX005 (ip), vehicle: Klucel (hydroxypropylcellulose) (HPC)) is 99 % of control; the T/C (dose: 200.0 mg/kg/injection, schedule: Q01DX005 (ip), vehicle: Klucel (hydroxypropylcellulose) (HPC)) is 98 % of control.

In the case of `CC1(C)CCC/C(=C\c2ccccc2)C1(O)c1ccccn1` (configuration not stated), the T/C is 97 % of control under setting [7], 98 % of control under setting [8] and 100 % of control under setting [9].

Turning to `Cc1ccc(CCNC(=O)c2c3nc4c(C(=O)NCCc5ccc(C)cc5)ccc(Br)c4oc-3c(Br)c(=O)c2N)cc1`, the T/C reads like this: under setting [4], 93 % of control; under setting [5], 86 % of control; under setting [6], 106 % of control.

In the case of `N#CC(C#N)=C1Sc2nc3ccc([N+](=O)[O-])cc3nc2S1`, the T/C is 109 % of control under setting [10]; 90 % of control (dose: 100.0 mg/kg/injection, schedule: Q01DX009 (ip), vehicle: saline); 118 % of control (dose: 200.0 mg/kg/injection, schedule: Q01DX009 (ip), vehicle: saline).

With `O=C(O)c1cc(-c2cccc3ccccc23)nc2cc3ccccc3cc12`, the T/C reads like this: under setting [7], 106 % of control and 94 % of control; under setting [8], 100 % of control; under setting [9], 102 % of control; (dose: 400.0 mg/kg/injection, schedule: Q01DX009 (ip), vehicle: saline with Tween-80) 118 % of control.

`Cc1cccc(=O)[n-]1.Cc1cccc(=O)[n-]1.Cc1cccc(=O)[n-]1.Cc1cccc(=O)[n-]1.[Rh+2].[Rh+2]`: the T/C is, setting by setting: (dose: 100.0 mg/kg/injection, schedule: Q04DX002 (ip), vehicle: Klucel (hydroxypropylcellulose) (HPC)) 103 % of control; (dose: 200.0 mg/kg/injection, schedule: Q04DX002 (ip), vehicle: Klucel (hydroxypropylcellulose) (HPC)) 102 % of control; (dose: 400.0 mg/kg/injection, schedule: Q04DX002 (ip), vehicle: Klucel (hydroxypropylcellulose) (HPC)) 100 % of control.

`CC(=O)Nc1ccc(Nc2nc(Cl)nc(Nc3ccc(NC(C)=O)cc3)n2)cc1`: the T/C is 100 % of control (dose: 30.0 mg/kg/injection, schedule: Q01DX005 (ip), vehicle: Klucel (hydroxypropylcellulose) (HPC)); 89 % of control and 97 % of control under setting [1]; 93 % of control under setting [2]; 89 % of control under setting [3].

On to `N#CC1CCCCC1C1(C#N)CCCCC1Cc1nccc2ccccc12` (configuration not stated), for which the T/C runs as follows: (dose: 100.0 mg/kg/injection, schedule: Q04DX003 (ip), vehicle: saline with Tween-80) 95 % of control; (dose: 200.0 mg/kg/injection, schedule: Q04DX003 (ip), vehicle: saline with Tween-80) 100 % of control; (dose: 400.0 mg/kg/injection, schedule: Q04DX003 (ip), vehicle: saline with Tween-80) 86 % of control.

Turning to `CCOC(=O)C(C[N+](=O)[O-])(NC(=O)c1ccccc1)C(=O)OCC`, the T/C by setting is: (dose: 60.0 mg/kg/injection, schedule: Q01DX005 (ip), vehicle: saline) 104 % of control; (dose: 120.0 mg/kg/injection, schedule: Q01DX005 (ip), vehicle: saline) 105 % of control; (dose: 240.0 mg/kg/injection, schedule: Q01DX005 (ip), vehicle: saline) 99 % of control.

As for `CC(=O)NNc1ccc(Cl)cc1[N+](=O)[O-]`, the T/C is, setting by setting: (dose: 50.0 mg/kg/injection, schedule: Q01DX009 (ip), vehicle: Klucel (hydroxypropylcellulose) (HPC)) 96 % of control; (dose: 100.0 mg/kg/injection, schedule: Q01DX009 (ip), vehicle: Klucel (hydroxypropylcellulose) (HPC)) 101 % of control.

`CC(C)(C)c1noc2c1C(=O)c1ccccc1-2`: the T/C was 99 % of control under setting [1], 91 % of control under setting [2] and 96 % of control under setting [3].

Take `CC(=O)c1c(-c2ccc(F)cc2)c(-c2ccc(F)cc2)n[nH]c1=O`: the T/C is, setting by setting: under setting [4], 100 % of control; under setting [5], 100 % of control; under setting [6], 97 % of control.

Turning to `O=C(O)CS(=O)(=O)CC(=O)O`, the T/C under setting [10] is 95 % of control.

`O=C1OC2C(I)C3CC1C2C3` (configuration not stated): the T/C is, setting by setting: (dose: 25.0 mg/kg/injection, schedule: Q01DX009 (ip), vehicle: saline with Tween-80) 100 % of control; (dose: 25.0 mg/kg/injection, schedule: Q04DX003 (ip), vehicle: saline with Tween-80) 104 % of control; under setting [7], 110 % of control; (dose: 50.0 mg/kg/injection, schedule: Q04DX003 (ip), vehicle: saline with Tween-80) 104 % of control.

Consider `Cc1cc2n[se]nc2cc1C`, for which the T/C by setting is: (dose: 6.25 mg/kg/injection, schedule: Q01DX009 (ip), vehicle: Klucel (hydroxypropylcellulose) (HPC)) 107 % of control; (dose: 12.5 mg/kg/injection, schedule: Q01DX009 (ip), vehicle: Klucel (hydroxypropylcellulose) (HPC)) 96 % of control; (dose: 25.0 mg/kg/injection, schedule: Q01DX009 (ip), vehicle: Klucel (hydroxypropylcellulose) (HPC)) 100 % of control.

Regarding `N#Cc1cn(N(CCO)CCO)c(=O)[nH]c1=O`, the T/C runs as follows: (dose: 25.0 mg/kg/injection, schedule: Q01DX005 (ip), vehicle: saline) 105 % of control; (dose: 50.0 mg/kg/injection, schedule: Q01DX005 (ip), vehicle: saline) 106 % of control; (dose: 100.0 mg/kg/injection, schedule: Q01DX005 (ip), vehicle: saline) 105 % of control; (dose: 200.0 mg/kg/injection, schedule: Q01DX005 (ip), vehicle: saline) 103 % of control.
